# Results: patent US10280179B2, “Spiroquinoxaline derivatives as inhibitors of non-apoptotic regulated cell-death” (Helmholtz Zentrum Munchen—Deutches Forschungszentrum Fur …, priority 2013, dated 2019)
# pIC50: −log10 of the molar value. Where two headings read alike, the source gives them in different places.
# Columns and labels:
# Pfa1 cells = experiment: Inhibition of non-apoptotic cell death after tamoxifen-induced GPx4 knockout in a recombinant cell line (Example B.4); assay type: cell-based; conditions: Mus musculus, read-out: Pfa1/TAM IC50
# In short: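 Immortalised murine fibroblasts with tamoxifen-inducible CreERT2 for ablation of both GPx4 copies (Pfa1 cells) received tamoxifen on day 0 together with test compound. Cell survival was measured by AlamarBlue after 72 hours.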
# [1] = Cellular toxicity, same assay as Example B.4 without TAM (Example B.5); assay type: cell-based; conditions: mouse; Pfa1 cells without TAM; read-out: TC50 (the source's name)
# From the text: Cellular Toxicity of Compounds of the Invention
# An estimate of the toxicity for compounds of the invention was obtained by using the same assay as described in Example B.4, but without the addition of TAM. […] Such TC50 values obtained for certain compounds disclosed herein, together with an approximate therapeutic window (estimated by dividing each TC50 by the corresponding IC50 determined from example B.4) are shown in Table 3.
# [2] = tested on: human neuroblastoma cell line SH-SY5Y; experiment: Inhibition of BSO-induced non-apoptotic cell death (Example B.1); assay type: cell-based; conditions: SH-SY5Y cells, 72 hours
# From the text: Inhibition of BSO-Induced Non-Apoptotic Cell Death by Compounds Disclosed Herein
# L-Buthionine sulfoximine (BSO) is a well-known glutathione (GSH) depletory, which inhibits gamma-glutamyl-cysteine-synthetase, the enzyme catalyzing the rate-limiting step in GSH biosynthesis. The human neuroblastoma cell line SH-SY5Y is sensitive to BSO-induced intracellular glutathione depletion, which causes high levels of reactive oxygen species (ROS) and cellular stress mimicking cellular conditions following ischemia (cf., e.g., Yamada et al., Neurochem. Int. 59:1003-9 (2011)).
# Compounds disclosed herein were evaluated for their ability to promote cell survival upon administration of a lethal dose of BSO to cell-culture medium. Briefly, SH-SY5Y cells (ATCC® CRL-2266™) were propagated in DMEM supplemented with 10% FBS/1% Penicillin-Streptomycin, and then seeded onto 96-well plates at a concentration of 750 cells/well in 100 μL of media, to which BSO (Sigma Aldrich) was added (to a final concentration of 50 μM) together with increasing concentrations of the compound to be tested, and the plates incubated at 37° C./5% CO2 for 72 hours. Compound dilutions (0.5 pM to 100 μM) were prepared from 10 mM stocks dissolved in DMSO and diluted in media. Cells treated with BSO alone were used as negative control and alpha-Tocopherol (Sigma Aldrich) was used as positive control. Compound concentrations were tested in triplicate. After incubation, cell survival was detected using the live/dead cell assay AquaBluer™ (MultiTarget Pharmaceuticals) and quantified using a fluorescence plate reader (excitation filter: 530-560 nm/emission filter: 590 nm) (SpectraMax M4; Molecular Devices). Fluorescence data so obtained was normalised to the percentage of surviving cells and IC50 values calculated using the GraphPad Prism (GraphPad Software, Inc) software package.
# [3] = tested on: mouse hippocampal cell line (Ht22); experiment: Inhibition of glutamate-induced non-apoptotic cell death (Example B.2); assay type: cell-based; conditions: HT-22, Ht22 cells
# In short: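 Ht22 cells (2,000/well, DMEM/10% FBS) seeded together with 5 mM glutamate and compound (0.5 pM to 100 μM, triplicate), incubated 72 h at 37 °C/5% CO2. Cell survival then quantified; glutamate alone as negative control, alpha-tocopherol as positive control.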
# SH-SY5Y cells = experiment: TNF-alpha-induced apoptosis, specificity for non-apoptotic cell death (Example B.3); assay type: cell-based, human; conditions: compound 1 μM, TNF-alpha 10 ng/mL, FIG. 1
# Method: SH-SY5Y cells were propagated and seeded in 96-well plates, together with compound N-1, N-2, N-10 of Table 1-N (FIG. 1(a)), compound O/S-6 or O/S-3 of Table 1-O/S (FIG. 1(b)), or compound C-12, C-91, or C-205 of Table 1-C (FIG. 1(c)) (each 1 μM) and TNF-alpha was added (final concentration: 10 ng/mL) to induce apoptosis. The apoptosis and pan-caspase inhibitor z-vad (final concentration: 50 μM) and the necroptosis inhibitor Necrostatin-1 (Nec-1; final concentration: 5 μM) were used for comparison. Control wells were established with vehicle only (DMSO), with and without treatment with TNF-alpha to induce apoptosis. Cells were incubated, and cell survival was detected and quantified. Percentage cell survival after TNF-alpha-induced apoptosis is shown (error bars indicate standard deviation (SD)).
# Briefly, SH-SY5Y cells were propagated and seeded in 96-well plates, together with the compound to be tested (1 μM), generally as described in Example B.1, except they were seeded at 1,000 cell/well and instead of BSO, TNF-alpha (Invitrogen) was added to a final concentration of 10 ng/mL to induce apoptosis. The apoptosis and pan-caspase inhibitor Z-VAD-fmk (Enzo Life Science; final concentration 50 μM) and the necroptosis inhibitor Necrostatin-1 (Nec-1; Enzo Life Science; final concentration 5 μM) were used for comparison. Control wells were established with vehicle only (DMSO), with and without treatment with TNF-alpha to induce apoptosis. Cells were incubated, and cell survival was detected and quantified as described in Example B.1.
# [4] = 50 μM BSO, read-out: SH-SY5Y/BSO IC50
# [5] = BSO 50 μM, cell survival (AquaBluer), read-out: SH-SY5Y/BSO (Example B.1) IC50
# [6] = glutamate 5 mM, 72 hours, cell survival, read-out: Ht22/GLU (Example B.2) IC50
# [7] = glutamate-induced cell death, read-out: Ht22/GLU
SMILES,pIC50 (Pfa1 cells),CC50 [1],"pIC50 [2, 4]","pIC50 [2, 5]","pIC50 [3, 6]","pIC50 [3, 7]",Percentage cell survival after TNF-alpha-induced apoptosis (SH-SY5Y cells)
CC1CCC2(CC1)Nc1ccccc1N=C2NCc1ccccc1Cl (stereo not drawn) [C-91],> 6.70,10 to 20 µM,> 7.70,8.03,~7.30,> 6.70,Non-inhibition of apoptotic cell-death
Clc1ccccc1CNC1=Nc2ccccc2NC12CCCCCC2 [C-205],> 6.70,20 to 50 µM,> 7.00,7.33,~7.00,> 6.30,Non-inhibition of apoptotic cell-death
Clc1ccccc1CNC1=Nc2ccccc2NC12CCNCC2 [N-1],> 7.30,10 to 20 µM,> 7.70,8.19,7.99,> 6.70,Non-inhibition of apoptotic cell-death
Fc1cccc(F)c1CNC1=Nc2ccccc2NC12CCNCC2 [N-231],> 7.30,10 to 20 µM,> 7.00,,,> 7.30,
CC1CC2(CCN1)Nc1ccccc1N=C2NCc1cccc(Cl)c1 (stereo not drawn) [N-239],> 6.00,5 to 10 µM,> 7.30,,,> 6.70,
CC1CC2(CCN1)Nc1ccccc1N=C2NCc1ccccc1 (stereo not drawn) [N-240],> 6.30,10 to 20 µM,> 7.00,,,> 6.30,
Cc1cc2c(cc1C)NC1(CCNCC1)C(NCc1cccc(C(F)(F)F)c1)=N2 [N-251],> 7.00,0.5 to 1 µM,> 8.00,,,> 7.30,
CC1CN(C)CCC12Nc1ccccc1N=C2NCc1ccccc1 (stereo not drawn) [N-256],> 6.30,10 to 20 µM,> 7.30,,,> 6.30,
Cc1cc2c(cc1C)NC1(CCNCC1)C(NCc1cccc(F)c1)=N2 [N-257],> 7.00,1 to 2 µM,> 7.70,,,> 7.00,
Clc1ccc(CNC2=Nc3cc(Cl)c(Cl)cc3NC23CCNCC3)cc1Cl [N-258],> 7.00,0.1 to 0.2 µM,> 7.70,,,> 7.30,
Fc1cc2c(cc1F)NC1(CCNCC1)C(NCc1ccccc1Cl)=N2 [N-259],> 7.30,1 to 2 µM,> 8.00,,,> 7.30,
FC(F)(F)c1cccc(CNC2=Nc3cc(Cl)c(Cl)cc3NC23CCNCC3)c1 [N-260],> 7.70,0.5 to 1 µM,> 7.70,,,> 7.30,
CCCCCCCCCCCCN1CCC2(CC1)Nc1ccccc1N=C2NCc1ccccc1 [N-261],> 7.00,2 to 5 µM,> 7.70,,,> 6.70,
Cc1cc(C)cc(CNC2=Nc3cc(C)c(C)cc3NC23CCNCC3)c1 [N-262],> 7.30,0.5 to 1 µM,> 7.70,,,> 7.30,
Clc1ccccc1CNC1=Nc2ccccc2NC12CCOCC2 [O/S-1],> 6.00,50 to 100 µM,> 6.30,,,> 6.00,
